Results published in patent publication US20170143748A1, “ANTI-TUMOR PHARMACEUTICAL APPLICATION OF PENTACYCLIC TRITERPENE SAPONIN COMPOUNDS OF SZECHUAN MELANDIUM ROOT” (priority 2014, published 2017).

Tests used:
[1] = system: BGC823 human gastric adenocarcinoma; experiment: Anti-BGC823 human gastric adenocarcinoma in BALB/c (nu/nu) nude mice; format: in vivo; set-up: tumor volume of BGC823-bearing nude mice / Tumor mass: unit not given here; conditions: for body weight of BGC823-bearing nude mice / tumor volume of BGC823-bearing nude mice: mg/kg BW: total saponins 1.5, Compound 1, combination 1 & 19, 5-FU 20, Sc; for body weight of BGC823-bearing nude mice: in g (unit assumed)
Description: Human resources gastric adenocarcinoma cell line BGC823 was cultured in the same condition as the experiment 4.
The body weight and the tumor volume were measured and recorded weekly. The tumor volume was calculated according to the formula below.
Tumors were departed and weighed. Tumor Index and inhibition rate were calculated as below: […]

[2] = system: HepG2; experiment: MTT inhibition of tumor cells in vitro (Example 3); format: cell-based, Human; conditions: 40 μg/mL
[3] = system: HT29; experiment: MTT inhibition of tumor cells in vitro (Example 3); format: cell-based, Human; conditions: 40 μg/mL
Description: (§1) Human resources tumor cell line […], […], HT29, MCF-7 and A875 were provided by Cancer Hospital, Chinese Academy of Medical Sciences.
(§2) Cells were passaged every 2 or 3 days, and all the experiments were carried out on exponentially growing cells.
(§3) All cells were cultured in a humidified atmosphere (5% CO2 and […]), and passaged every 2 or 3 days. Cells were harvested on exponentially growing phase, and cell suspension was prepared with 2×10^4 cells/mL, added with 100 μL per well of 96-well plates, and cultured for 24 h in incubator. 100 μL medium without cells was added per well as blank group.
(§4) Compound (1), (2), (3), (4), (7) or (8) was dissolved in DMSO respectively, and diluted with 1640 medium at a final concentration of 400 μg/mL, so as to that of the Cisplatin. Cells were divided into 9 groups, they were blank group, model group, Compound (1), (2), (3), (4), (7) and (8) groups, and Cisplatin group as the positive one, 6 wells per group.
(§5) Before drug administration, supernatant of each well was removed and fresh 1640 medium was added, 180 μL per well. Compounds and Cisplatin were added with 20 μL per well respectively at a final concentration of 40 μg/mL. Wells of blank and model groups were added with 0.5% DMSO, 20 μL per well. 48 hours later, 20 μL MTT was added per well and continued to culture for 4 hours, then the supernatant was replaced carefully and DMSO was added with 150 μL per well to end the experiment. The 96-well plates were shaken for 10 mins and read the absorbance at 490 nm. The Inhibition rate was calculated.
(§6) Inhibition rate=[(ODmodel−ODblank)−(ODdrugs−ODblank)]/(ODmodel−ODblank)×100%
(§7) The MTT experiment was repeated three times.

[4] = system: A875; experiment: MTT inhibition of tumor cells in vitro (Example 3); format: cell-based, Human; conditions: 48 hours
Description: as §1, §2, §3, §4, §5, §6, §7

[5] = system: MCF-7; experiment: MTT inhibition of tumor cells in vitro (Example 3); format: cell-based, Human; conditions: 48 hours
Description: as §1, §2, §3, §4, §5, §6, §7

[6] = system: BGC823; experiment: MTT inhibition of tumor cells in vitro (Example 3); format: cell-based, Human; conditions: 40 μg/mL
Description: as §1, §2, §3, §4, §5, §6, §7

[7] = system: HepG2 human heptoma; experiment: Anti-HepG2 human heptoma in BALB/c (nu/nu) nude mice; conditions: for body weight of HepG2-bearing nude mice / tumor volume of HepG2-bearing nude mice: mg/kg BW: total saponins 1.5, Compound 1, combination 1 & 39, Cytoxan 40, Sc
Description: 70 male BALB/c (nu/nu) nude mice (18-20 g, License NO. SCXK (BJ) 2009-0017, National Institutes for Food and Drug Control.) were adaptively bred for one week, and then used in the following experiment.
Human resources hepatoma cell line HepG2 was cultured in RPMI-1640 medium containing 100 U/mL Penicillin and 100 μg/mL Streptomycin with 10% fetal bovine serum and maintained at 37° C. in a humidified atmosphere (5% CO2 and […]).
70 BALB/c (nu/nu) nude mice were adaptively bred for 1 week, HepG2 cells were inoculated subcutaneously into the back of nude mice, 1×10^7 cells per mouse. […] 3 days after inoculation, mice of every therapeutic group were all given the relevant compounds or drugs for 3 weeks, and others were given isodose physiological saline.
The body weight and the size of tumor were measured and recorded weekly. The tumor volume was calculated with the formula below:
tumor volume V=π/6×a×b^2 (a, b means the transverse and longitudinal length of tumor)
At the end of administration, mice were fastened for 8 hours, weighed the fasting body weight, dropped off eyeball to collect blood, centrifuged and collected serum for next experiment. The tumors were departed and weighed. Tumor Index and inhibition rate were calculated as below:
Tumor Index=Tumor mass (mg)/body weight of animal (g)
Inhibition rate=(Average tumor massControl group−Average tumor massadministration group)/Average tumor massControl group×100%
Mice in the model group were injected with sterile water (10 ml/kg BW), Sc. All the animals were treated at 9 am for 3 weeks.
Determination of body weights: Body weights of animals were weighed and recorded once a week.
Tumor measurement: The transverse and longitudinal lengths of tumor were measured with vernier caliper weekly.
End of the experiment: After mice being administrated for 3 weeks (21 days), the experiment was terminated.

**Q.** For O=c1[nH]cc(F)c(=O)[nH]1 [Compound 5-FU, 5-FU, reference compound], which “body weight of BGC823-bearing nude mice” value ([1]; 0 W) is on record?
**A.** 20.20 ± 1.23

**Q.** What about the “tumor volume of BGC823-bearing nude mice” value ([1]; 1 W) of the same compound?
**A.** 931.38 ± 623.32

**Q.** What about the “body weight of BGC823-bearing nude mice” value ([1]; 1 W) of the same compound?
**A.** 19.50 ± 1.51

**Q.** And the “tumor volume of BGC823-bearing nude mice” value ([1]; 2 W)?
**A.** 1262.33 ± 764.46

**Q.** What about the “body weight of BGC823-bearing nude mice” value ([1]; 2 W) of the same compound?
**A.** 18.20 ± 1.81

**Q.** And the “tumor volume of BGC823-bearing nude mice” value ([1]; 3 W)?
**A.** 2212.36 ± 1196.96

**Q.** What about the “body weight of BGC823-bearing nude mice” value ([1]; 3 W) of the same compound?
**A.** 16.70 ± 2.20

**Q.** And the Inhibition rate ([1]; BGC823-bearing nude mice, after 3 weeks, from average tumor mass vs model)?
**A.** 54.85%

**Q.** And the Tumor index ([1]; BGC823-bearing nude mice, after 3 weeks, tumor mass/body weight)?
**A.** 0.08 ± 0.04

**Q.** With COC(=O)C1CC(O[C@H]2CC[C@]3(C)[C@H]4C=CC5[C@@H]6CC(C)(C)CC[C@]6(C(=O)OC6OC(C)C(OC(=O)/C=C\c7ccc(C)cc7)C(OC(C)=O)C6OC6CC(C)C(O)C(O)C6O)[C@H](O)C[C@@]5(C)[C@]4(C)CC[C@H]3[C@]2(C)C=O)C(OC2OC(CO)C(O)C(O)C2O)C(OC2OCC(O)C(O)C2O)C1O (stereo partly shown) [Compound (4), sinocrassuloside IV] as the compound, how does the inhibition at 40 µg/mL ([2]; Homo sapiens, HepG2, 48 h, read-out: Inhibition rate, HepG2) read?
**A.** 65.7 ± 1.05%

**Q.** What about the inhibition at 40 µg/mL ([3]; Homo sapiens, HT-29, 48 h, read-out: Inhibition rate, HT29) of the same compound?
**A.** 90.6 ± 5.6%

**Q.** And the inhibition at 40 µg/mL ([4]; Homo sapiens, A875, 40 μg/mL, read-out: Inhibition rate, A875)?
**A.** 70.5 ± 9.76%

**Q.** And the inhibition at 40 µg/mL ([5]; Homo sapiens, MCF7, 40 μg/mL, read-out: Inhibition rate, MCF-7)?
**A.** 56.2 ± 1.96%

**Q.** What about the inhibition at 40 µg/mL ([6]; Homo sapiens, BGC-823, 48 h, read-out: Inhibition rate, BGC823) of the same compound?
**A.** 92.4 ± 6.24%

**Q.** What does the source list for CCCCOC(=O)C1OC(O[C@H]2CC[C@]3(C)[C@H]4CC=C5[C@@H]6CC(C)(C)CC[C@]6(C(=O)OC6OC(C)C(OC(=O)/C=C\c7ccc(OC)cc7)C(OC(C)=O)C6OC6OC(C)C(O)C(O)C6O)[C@H](O)C[C@@]5(C)[C@]4(C)CC[C@H]3[C@]2(C)C=O)C(OC2OC(CO)C(O)C(O)C2O)C(OC2OCC(O)C(O)C2O)C1O (stereo partly shown) [Compound (8), sinocrassuloside XIII]?
**A.** Inhibition rate, HepG2 ([2]; 48 hours): 41.25 ± 1.27%; Inhibition rate, HT29 ([3]; 48 hours): 77.22 ± 6.17%; Inhibition rate, A875 ([4]; 40 μg/mL): 55.32 ± 13.35%; Inhibition rate, MCF-7 ([5]; 40 μg/mL): 61.32 ± 11.67%; Inhibition rate, BGC823 ([6]; 48 hours): 56.00 ± 7.90%

**Q.** What does the source list for O=P1(N(CCCl)CCCl)NCCCO1 (stereo not shown) [Cytoxan, reference compound]?
**A.** body weight of HepG2-bearing nude mice ([7]; 0 W): 19.20 ± 0.63; body weight of HepG2-bearing nude mice ([7]; 1 W): 18.50 ± 1.08; tumor volume of HepG2-bearing nude mice ([7]; 1 W): 988.47 ± 705.60; body weight of HepG2-bearing nude mice ([7]; 2 W): 16.00 ± 1.41; tumor volume of HepG2-bearing nude mice ([7]; 2 W): 1220.93 ± 881.80; body weight of HepG2-bearing nude mice ([7]; 3 W): 14.70 ± 1.34; tumor volume of HepG2-bearing nude mice ([7]; 3 W): 1593.79 ± 955.17; Inhibition rate ([7]; HepG2-bearing nude mice, after 3 weeks, from average tumor mass vs model): 70.46%; Tumor index ([7]; HepG2-bearing nude mice, after 3 weeks, tumor mass/body weight): 0.06 ± 0.02
